{"source": "patent US11389465B2", "about": "“Phosphorylated hexaacyl disaccharides (PHADs) for treating or preventing infections” (VANDERBILT UNIVERSITY, priority 2017, dated 2022)", "key": {"[1]": {"settings": "in vivo; cited from earlier work"}, "[2]": {"test_system": "C. albicans", "assay": "Systemic (intravenous) C. albicans infection in MPLA-primed mice (FIG. 2)", "assay_type": "in vivo", "settings": "MPLA 20 μg; intravenous C. albicans 1×10^8 CFU", "description": "(§1) FIG. 2. MPLA induces resistance to S. aureus and C. albicans infection. A) WT BALB/c mice were injected with intravenous MPLA (20 μg/mouse) or vehicle one and two days prior to intravenous inoculation with intravenous 10^8 cfu S. aureus or 10^8 cfu C. albicans. B) Kaplan Meier survival curve of vehicle- and MPLA-primed mice. (n=12 mice/group) after S. aureus inoculation. C) Core (rectal) body temperature assessed daily after S. aureus inoculation. D) S. aureus cfu per gram of tissue recoverable from whole spleen, lung, and kidney in vehicle and MPLA-primed mice at 3 days after S. aureus inoculation. E) Concentration of serum IL-6 2 hours after S. aureus inoculation or vehicle. F) Concentration of serum BUN 3 days after S. aureus inoculation or vehicle. G) Kaplan Meier survival curve of vehicle- and MPLA-primed mice. (n=12 mice/group) after intravenous 10^8 cfu C. albicans inoculation. H) Core (rectal) body temperature after C. albicans inoculation. Data shown as mean+/−SEM. For Kaplan-Meier plots *, p<0.05 via log-rank Mantel-Cox test. Otherwise, *, p<0.05 as determined by ANOVA with Tukey's post-hoc multiple comparison test.\n(§2) MPLA is also effective in improving survival in models of systemic S. aureus and C. albicans infection. Mice treated with MPLA (20 μg) after a 20% cutaneous burn received intravenous challenge with S. aureus or C. albicans (1×10^8 CFU) on day 5 post-burn (FIG. 2)."}, "[3]": {"test_system": "Pseudomonas aeruginosa", "assay": "Duration of MPLA activity, intraperitoneal P. aeruginosa challenge (FIG. 4)", "assay_type": "in vivo, mice", "description": "FIG. 4. Duration of MPLA activity. Mice were treated with MPLA (20 μg IP) for 2 consecutive days and challenged with P. aeruginosa at the designated times after the last MPLA treatment. *<0.05 compared to vehicle control.\nIt is important to know how long the effect of PHADs lasts to guide dosing frequency. Studies were performed with MPLA that show a duration of action of up to 10 days. Mice were treated with MPLA on 2 consecutive days (20 μg, IP) followed by intraperitoneal challenge with Pseudomonas aeruginosa (1×10^8) at 1, 7, 10 or 15 days after the last MPLA treatment (FIG. 4)."}, "[4]": {"test_system": "S. aureus", "assay": "Systemic (intravenous) S. aureus infection in MPLA-primed mice (FIG. 2)", "assay_type": "in vivo", "settings": "MPLA 20 μg", "description": "as §1, §2"}, "[5]": {"test_system": "Bone marrow derived macrophages (BMDMs)", "assay": "Metabolic reprogramming of bone marrow derived macrophages by MPLA (FIG. 11)", "assay_type": "cell-based", "settings": "1 μg/mL MPLA for 24 hours", "description": "FIG. 11. MPLA drives persistent and dynamic metabolic reprogramming in macrophages. A) Bone marrow derived macrophages (BMDMs) were primed with 1 μg/mL MPLA for 24 hours, washed, and rested for 3 days (3 dp macrophages). These macrophages were compared to BMDMs stimulated with 1 μg/mL MPLA for 24 hours prior to assessment (24 hr macrophages) and untreated BMDMs (control). B) Glycolysis stress test of macrophages as determined by the Seahorse Xf^e96. C) Maximal extracellular acidification rate (ECAR) derived after the addition of oligomycin in the glycolysis stress test D) Glucose consumed from BMDMs over 24 hours, as determined by glucose concentration in cell-free medium subtracted by cell-containing medium. E) Lactate produced by BMDMs over 24 hours, as determined by lactate in cell-containing medium subtracted by cell free medium. F) Basal oxygen consumption rate (OCR) determined after the addition of glucose in the glycolysis stress test. G) Mitochondrial stress test of BMDMs as determined by the Seahorse Xfi96. H) Maximal oxidative rate derived after the addition of FCCP in the mitochondrial stress test. I) Intracellular ATP from BMDMs as determined by luminescence assay. Some BMDMs were exposed to 10 mM 2-DG or IlpM oligomycin for 3 hours prior to the assay. J) MitoTracker Green staining of BMDMs as determined by flow cytometry. K) Mitochondrial DNA (mtDNA)/nuclear DNA (nucDNA) as determined by qPCR. L) Succinate dehydrogenase (SDHA), citrate synthase (CS), and β-actin as determined by western blot. All bands shown derived from the same samples. […] Densitometry of SDHA and CS compared to β-actin derived from ImageJ shown. All experiments replicated at least twice. Data shown as mean+/−SEM. *, p<0.05 as determined by ANOVA with Tukey's post-hoc multiple comparison analysis."}, "[6]": {"assay": "Physiological response of burned sheep to MPLA infusion (FIG. 7)", "assay_type": "in vivo", "description": "FIG. 7. MPLA infusion causes transient physiologic changes in burned sheep. Sheep received 20% total body surface area burn followed 24 hours later by vehicle or MPLA ([…]) infusion. Core body temperature, hemodynamics and pulmonary mechanics were measured for 2 hours after initiation of MPLA or vehicle infusions. […] A transient increase in heart rate (HR) and decrease in mean arterial blood pressure (MAP) were also observed in MPLA-treated sheep.\nSheep were instrumented and received a 20% cutaneous burn. At 24 hours after the burn procedure, MPLA (5 ug/kg) was infused in 10 ml of endotoxin-free lactated Ringer's solution over 10 minutes. The sheep developed a transient 1° C. increase in core temperature at 1 hour after the start of infusion (FIG. 7)."}, "[7]": {"test_system": "P. aeruginosa", "settings": "20 μg IP on 2 consecutive days, compared to vehicle"}, "[8]": {"settings": "MPLA 5 ug/kg, 24 hours after 20% burn"}, "[9]": {"settings": "MPLA 2.5 micrograms/kg (FIG. 7 legend)"}}, "data": [{"substance": "Monophosphoryl Lipid A [MPLA]", "values": [{"measurement": "dose relative to LPS that can be administered to humans before adverse side effects occur", "setting": "[1]", "value": "1000-10,000 times"}, {"measurement": "survival", "setting": "[2]", "value": 40, "unit": "%"}, {"measurement": "duration of action", "setting": "[3]; MPLA 20 μg IP on 2 consecutive days", "value": "up to 10 days"}, {"measurement": "bacterial burden", "setting": "[3]; challenge at 1, 7 and 10 days after last MPLA treatment, compared to vehicle", "value": "significantly lower bacterial burden"}, {"measurement": "attenuation of hypothermia", "setting": "[3]; challenge up to 15 days after last MPLA treatment", "value": "persisted until day 15"}, {"measurement": "infection-induced hypothermia", "setting": "[4]; FIG. 2 C-F, H", "value": "attenuated infection-induced hypothermia"}, {"measurement": "kidney injury", "setting": "[4]; FIG. 2 C-F, H", "value": "less kidney injury"}, {"measurement": "plasma cytokine concentrations", "setting": "[4]; FIG. 2 C-F, H", "value": "lower plasma cytokine concentrations"}, {"measurement": "survival", "setting": "[4]; intravenous S. aureus 1×10^8 CFU", "value": 90, "unit": "%"}, {"measurement": "ATP production", "setting": "[5]", "value": "enhances ATP production"}, {"measurement": "macrophage metabolism: glycolysis and oxygen consumption", "setting": "[5]", "value": "increased glycolysis and oxygen consumption"}, {"measurement": "mitochondrial biogenesis", "setting": "[5]", "value": "enhances"}, {"measurement": "cardiac index, mean arterial pressure, central venous pressure, stroke volume, systemic vascular resistance, peak and pause airway pressures and PaO2/FiO2 ratio", "setting": "[6]; [8]", "value": "not significantly changed"}, {"measurement": "heart rate and pulmonary artery pressure", "setting": "[6]; [8]", "value": "not significantly altered"}, {"measurement": "increase in core temperature", "setting": "[6]; MPLA 5 ug/kg, 24 hours after 20% burn, transient, at 1 hour after start of infusion", "value": 1, "unit": "°C"}, {"measurement": "cardiac index (CI), central venous pressure (CVP) and systemic vascular resistance (SVRI)", "setting": "[6]; [9]", "value": "minimally impacted"}, {"measurement": "mean arterial blood pressure (MAP)", "setting": "[6]; [9]", "value": "significantly decreased at 45 and 60 minutes"}, {"measurement": "time of peak core body temperature after initiation of infusion", "setting": "[6]; [9]", "value": 75, "unit": "min"}, {"measurement": "core body temperature", "setting": "[6]; MPLA 2.5 micrograms/kg (FIG. 7 legend), from 45 minutes, still elevated at 2 hours", "value": "increased core body temperature"}, {"measurement": "heart rate (HR)", "setting": "[6]; MPLA 2.5 micrograms/kg (FIG. 7 legend), returned to baseline at 90 minutes", "value": "significantly increased at 30-75 minutes"}, {"measurement": "safe dose", "setting": "[6]; burned sheep, infusion over 10 minutes", "value": 5, "unit": "µg/kg"}, {"measurement": "bacterial burden (peritoneal cavity)", "setting": "[7]; 6 hours after challenge", "value": "decreased bacterial burden"}, {"measurement": "neutrophil and monocyte recruitment to the site of infection", "setting": "[7]; 6 hours after challenge", "value": "markedly enhanced"}, {"measurement": "infection-induced hypothermia", "setting": "[7]", "value": "attenuated infection-induced hypothermia"}]}]}
